Assay results: paper PMC4632738, “New Peptide-Conjugated Chlorin-Type Photosensitizer Targeting Neuropilin-1 for Anti-Vascular Targeted Photodynamic Therapy” (International Journal of Molecular Sciences, 2015)
“Also recorded” adds a separate entry of the source. Read-outs that look alike come from different tables or passages of the source. Ends that are not written are not given here. TPC = not defined here; Ahx = NCCCCCC(=O)O

Legend:
HUVEC = system: HUVEC; design: method as in PMID 17283031; settings: cited from earlier work; for Light doses 50 values: red light
[1] = target: T1, recombinant NRP-1 protein (Homo sapiens, UniProt O14786); assay: Competitive binding ELISA, displacement of biotinylated VEGF165
T1 sequence (O14786 22-923): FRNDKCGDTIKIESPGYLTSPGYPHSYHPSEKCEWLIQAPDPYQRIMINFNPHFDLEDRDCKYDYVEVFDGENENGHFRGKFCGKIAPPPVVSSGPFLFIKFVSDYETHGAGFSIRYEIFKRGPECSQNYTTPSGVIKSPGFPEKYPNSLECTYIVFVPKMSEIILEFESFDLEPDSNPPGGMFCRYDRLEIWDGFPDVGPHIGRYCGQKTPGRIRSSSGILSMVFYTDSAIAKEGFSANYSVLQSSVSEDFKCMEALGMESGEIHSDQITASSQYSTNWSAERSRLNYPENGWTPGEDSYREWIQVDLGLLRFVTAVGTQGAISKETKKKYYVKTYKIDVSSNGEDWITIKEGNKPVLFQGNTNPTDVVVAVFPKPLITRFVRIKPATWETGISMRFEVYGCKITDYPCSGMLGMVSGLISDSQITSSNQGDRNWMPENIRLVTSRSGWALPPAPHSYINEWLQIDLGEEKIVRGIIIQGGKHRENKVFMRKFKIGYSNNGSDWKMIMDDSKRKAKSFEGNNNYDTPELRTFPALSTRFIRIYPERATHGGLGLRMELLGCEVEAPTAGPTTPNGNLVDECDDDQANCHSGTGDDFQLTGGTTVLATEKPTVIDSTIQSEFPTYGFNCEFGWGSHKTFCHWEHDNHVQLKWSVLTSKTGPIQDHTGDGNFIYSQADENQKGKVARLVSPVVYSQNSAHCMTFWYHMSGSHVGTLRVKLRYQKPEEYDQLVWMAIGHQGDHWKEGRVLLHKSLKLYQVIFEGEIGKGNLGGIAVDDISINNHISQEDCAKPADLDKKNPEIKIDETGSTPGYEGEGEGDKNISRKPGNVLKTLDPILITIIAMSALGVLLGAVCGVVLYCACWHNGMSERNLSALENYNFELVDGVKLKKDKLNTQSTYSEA
Method: The molecular affinity of the different TPC–peptide conjugates for recombinant NRP-1 protein was estimated through a competitive binding test using biotinylated VEGF165 to NRP-1 receptor recognition recombinant. As biotinylated VEGF165 binding to this receptor is heparin dependent, the competitive binding tests were performed in the presence of heparin (2 µg/mL).
The conjugates were first dissolved in DMSO and subsequently diluted in methanol. Tween-20 was added in the blocking buffer to assist in the solubilization of the conjugate. The samples were prepared in ten different concentrations ranging from 3 to 960 µM.

[2] = target: T1, recombinant NRP-1 protein; settings: cited from earlier work
[3] = Photophysical characterization (UV-Vis absorption, fluorescence and singlet oxygen quantum yields); format: physicochemical; settings: ethanol, room temperature; for Molar Extinction Coefficient Soret ε415: 415 nm; for Molar Extinction Coefficient QIV ε516: 516 nm; for Molar Extinction Coefficient QIII ε543: 543 nm; for Molar Extinction Coefficient QII ε598: 598 nm; for Molar Extinction Coefficient QI ε650: 650 nm; for Fluorescence quantum yield Φf: ±0.02, reference TPP in toluene; for Singlet oxygen quantum yield Φ∆: ±0.05, reference rose Bengal in ethanol
Excerpt: Table 3 summarizes the molar extinction coefficient values of the six conjugates as well as their fluorescence and singlet oxygen quantum yield values.
The photophysical properties of TPC and the TPC–peptide conjugates were characterized using three different techniques; UV/visible absorption (Perkin Elmer Lambda 2 UV-Vis spectrophotometer, Courtaboeuf, France), fluorescence emission (SPEX Fluorolog-3 spectrofluorometer, Jobin Yvon, Longjumeau, Paris, France) and singlet oxygen emission. For UV-Vis measurements, the samples of TPC and the six conjugates were diluted in ethanol and their spectra were determined in the range of 300 to 800 nm. For fluorescence emission spectra, samples with an absorption at 415 nm equal to 0.200 (±0.02) were prepared. Solvent refractive index and absorption efficiencies of fluorescence quantum yields (Φf) were calculated based on a TPP solution in toluene as a fluorescence standard reference (Φf(ref) = 0.11) as described by Equation (2): (2) ϕf=ϕf(ref)×I/Iref×Aref/A×(n/nref)^2 where A and Aref correspond to the absorbance at 415 nm of the sample and TPP, respectively, while I and Iref are the areas under the fluorescence spectra between 600 and 750 nm of the sample and TPP, respectively. n and nref are the refractive indices of solvents used for the sample and TPP, respectively (n/nethanol = 1.361, nref/ntoluene = 1.496).
Singlet oxygen emission spectra were recorded on SPEX 1680 with […] double monochromator with a Xenon arc lamp as excitation source. Singlet oxygen generation was specifically detected at 1270 nm and the emission was monitored by using liquid nitrogen-cooled germanium-detector (EO-817P, North Coast Scientific, North Ridgeville, OH, USA). A solution of rose Bengal in ethanol was used as the reference, ΦΔ(ref) = 0.68 [25]. The singlet oxygen quantum yield was then determined using Equation (3): (3) ϕΔ=ϕΔ(ref)×I/Iref×Aref/A where A and Aref are the UV visible absorbance at 415 nm of the sample and rose Bengal (the reference), respectively, while I and Iref are the peak intensities of luminescence at 1270 nm of the sample and rose Bengal, respectively.

[4] = Shake flask octanol/PBS pH 7.4 distribution coefficient; format: physicochemical; settings: expressed as log, mean ± S.D.
Method: The distribution coefficient values at pH 7.4 from the shake flask method and the retention time from HPLC analysis of TPC and the conjugates are summarized in Table 2. The TPC-spacer-peptides were analyzed by HPLC (column Altech, Apollo C18 reverse-phase (5 μm; 250 mm × 4.6 mm)) on a Shimadzu LC-10ATvp, monitored by a UV/Visible detector at 214 and 415 nm on a SPD-10A UV-Visible detector. […] The log DpH7.4 value for TPC–Ahx–ATWLPPR obtained (2.61 ± 0.2) was also consistent with data published by Tirand et al., confirming the hydrophobic characteristic of TPC and the TPC–Ahx–ATWLPPR conjugate.
Hydrophilic and hydrophobic characteristics were also evaluated using the “shake flask” method to determine the solubility of the free TPC and the conjugates. […] The distribution coefficient, DpH7.4 was then expressed as log (mean ± S.D., n = 6).

[5] = cited from earlier work
[6] = In vivo plasma concentration by HPLC after intravenous injection; settings: mice, 2.8 mg/kg i.v., sampled at 1, 4 and 24 h
Method: The in vivo stability study was carried out with only two of the novel conjugates synthesized; TPC–PEG18–DKPPR and TPC–PEG18–TKPRR were selected because of to their interesting hydrophilicity properties. We selected TPC–Ahx–ATWLPPR conjugate as a reference based on our previous studies. Blood and tissue samples were weighed and kept at −80 °C in polypropylene tubes, until further processing. Extraction of the conjugates from the tissues required first a solubilization step, using TEM buffer (10 mM Tris, 1.66 mM EDTA, 5 mM molybdate, pH 7.4) and homogenization. […] Conjugates levels in the plasma and tissues were determined as a percentage of the injected dose per gram […] (% injected dose/g of tissue) or per milliliter plasma. […]
The in vivo stability analyses were performed by HPLC equipped with programmable software GOLD version 1.6 (Beckman Coulter, Fullerton, CA, USA), an auto sampler injector (507e, System Gold, Beckman Coulter) and a fluorescence detector (RF-10A XL, Shimadzu, Kyoto, Japan). […] Fluorescence excitation and emission wavelengths were detected at 416 and 652 nm, respectively. […] The conjugate levels in plasma and organs were determined from the peak areas and normalized based on standard calibration curves constructed earlier. The data were calculated as the mean value of three mice.

[7] = design: method as in PMID 17283031; settings: cited from earlier work
[8] = In vivo stability in plasma by MALDI-TOF MS; settings: 24 h after administration, mice
Method: Female athymic Swiss nude/nude mice (7–9 weeks, weight range 20–25 g) were obtained from Harlan (Gannat, France). The in vivo study we conducted was based on the results obtained from the ELISA test conducted earlier. The conjugates of TPC–Ahx–ATWLPPR, TPC–PEG18–DKPPR and TPC–PEG18–TKPRR (2.8 mg/kg) were injected intravenously via the tail vein in ethanol–PEG 400–water (2:3:5, v/v/v). The mice were kept in the dark after the injection. After 1, 4 and 24 h, blood samples were collected and plasma was separated from the blood. The mice were sacrificed and tissues were carefully excised. All samples were kept in the dark at −80 °C in polypropylene tubes until further analysis.
MALDI-TOF MS analyses were carried out on a Bruker Reflex IV time-of-flight mass spectrometer (Bruker-Daltonic, Bremen, Germany) equipped with the SCOUT 384 probe ion source fitted with a nitrogen pulsed laser (337 nm, VSD-337ND model, Laser Science Inc., Boston, MA, USA). The laser output energy was 400 μJ/pulse. Positives ions were accelerated with a 200 ns extraction delay. The reflector voltage was 23 kV. […]
MALDI-TOF MS analyses were performed using 2,5-dihydroxybenzoic acid (DHB) (Sigma-Aldrich, Saint-Quentin-Fallavier, France) as the matrix. […] All samples were analyzed in duplicate.

Compound: O=C(O)c1ccc(-c2c3nc(c(-c4ccccc4)c4ccc([nH]4)c(-c4ccccc4)c4nc(c(-c5ccccc5)c5ccc2[nH]5)CC4)C=C3)cc1 [TPC, 5-(4-carboxyphenyl)-10,15,20-triphenyl chlorin]
- Light doses 50 values (HUVEC): 4.9 ± 0.64 J/cm^2
- Displacement of biotinylated VEGF165 binding onto NRP-1 protein ([1]; heparin 2 µg/mL): failed to displace; also recorded: did not show any significant binding at all
- Displacement of the binding of VEGF165 [2]: failed to do so
- Molar Extinction Coefficient Soret ε415 [3]: 76000 L·M^−1·cm^−1
- Molar Extinction Coefficient QIV ε516 [3]: 8000 L·M^−1·cm^−1
- Molar Extinction Coefficient QIII ε543 [3]: 5000 L·M^−1·cm^−1
- Molar Extinction Coefficient QII ε598 [3]: 4000 L·M^−1·cm^−1
- Molar Extinction Coefficient QI ε650 [3]: 12000 L·M^−1·cm^−1
- Fluorescence quantum yield Φf [3]: 0.18
- Singlet oxygen quantum yield Φ∆ [3]: 0.47
- logD ([4]; n = 6, read-out: Shake Flask Method Distribution Coefficient, D (log D pH7.4)): 2.61 ± 0.2

Compound: C1=Cc2nc1c(-c1ccccc1)c1ccc([nH]1)c(-c1ccccc1)c1nc(c(-c3ccccc3)c3ccc([nH]3)c2-c2ccccc2)C=C1 [TPP]
- Fluorescence quantum yield of standard reference Φf(ref) ([5]; in toluene): 0.11

Compound: O=C([O-])c1c(Cl)c(Cl)c(Cl)c(Cl)c1-c1c2cc(I)c(=O)c(I)c-2oc2c(I)c([O-])c(I)cc12.[Na+].[Na+] [rose Bengal]
- Singlet oxygen quantum yield of standard reference ΦΔ(ref) ([5]; in ethanol): 0.68

Compound: DKPPR [DKPPR]
- IC50 [1]: 1000 nM

Compound: TKPPR
- Displacement of the binding of VEGF165 to recombinant NRP-1 (ELISA) ([2]; free peptides): able to displace the binding of VEGF165

Compound: TKPRR [TKPRR]
- IC50 [1]: 1000 nM

Compound: TPC–Ahx–ATWLPPR: TPC coupled via 6-aminohexanoic acid spacer to peptide ATWLPPR; group's earlier NRP-1 targeting conjugate ({TPC-Ahx}-ATWLPPR; reading uncertain; also: printed as TPC–Ahx–ATWLPPR)
- Time up to which conjugate is found in plasma after intravenous injection [6]: up to 24 h
- Time for which conjugate could be detected in the plasma [7]: ≥ 48 h
- Enhancement of photodynamic activity versus TPC (HUVEC): 10.4 fold
- Light doses 50 values (HUVEC): 0.47 ± 0.23 J/cm^2
- Displacement of the binding of VEGF165 [2]: managed to displace the binding of VEGF165
- IC50 ([2]; read-out: IC50, displacement of VEGF165 binding to NRP-1): 171000 nM
- Molar Extinction Coefficient Soret ε415 [3]: 74000 L·M^−1·cm^−1
- Molar Extinction Coefficient QIV ε516 [3]: 6800 L·M^−1·cm^−1
- Molar Extinction Coefficient QIII ε543 [3]: 4900 L·M^−1·cm^−1
- Molar Extinction Coefficient QII ε598 [3]: 2600 L·M^−1·cm^−1
- Molar Extinction Coefficient QI ε650 [3]: 12000 L·M^−1·cm^−1
- Fluorescence quantum yield Φf [3]: 0.18
- Singlet oxygen quantum yield Φ∆ [3]: 0.39
- MS signal of peak m/z 616 (attributed to the TPC moiety) in plasma [8]: not detected
- Shake Flask Method Distribution Coefficient, D (log D pH7.4) ([4]; n = 6): 2.61 ± 0.2
